Patent US6864217B2, “Herbicidal compositions with substituted phenylsulfonylureas for controlling weeds in rice” (Hoechst Schering AgrEvo GmbH, priority 1998, dated 2005)
Structures can show the parent of a compound that is named as a salt. Where two headings read alike, the source gives them in different places.

What was measured:
[1] = system: Sagittaria pygmaea; experiment: Table 14 greenhouse trial, treatment at the 3-4 leaf stage: weed control; assay type: in vivo; details: 21 days after application
Description: (§1) Seeds or rhizome pieces of mono- and dicotyledonous weed plants are placed into sandy loam soil in plastic pots, covered with soil and grown in a greenhouse under good growth conditions (temperature, atmospheric humidity, water supply). Weeds which are encountered in the cultivation of rice are cultivated in pots in which the water level is up to 2 cm over the soil surface. Three weeks after sowing, the test plants are treated at the three-leaf stage. The active compound combinations according to the invention, formulated as wettable powders or emulsion concentrates, and, in parallel experiments, the correspondingly formulated individual active compounds are sprayed onto the green parts of the plants at different dosages using an amount of water of 300 to 600 l/ha (converted), and, after about 3 to 4 weeks of the test plants in the greenhouse under optimum growth conditions (temperature, atmospheric humidity, water supply), the effect of the preparations is evaluated visually in comparison to untreated controls. In the case of rice or weeds which are encountered in the cultivation of rice, the active compounds are also added directly to the water for irrigation (application analogous to the so-called granules application) or sprayed onto plants and added to the water for irrigation. The experiments were designed with several, up to five, repetitions. The herbicidal compositions according to the invention also have good herbicidal post-emergence activity against a broad spectrum of economically important weed grasses and broad-leaved weeds.
Greenhouse trial: Treatment at the 3-4 leaf stage, evaluation 21 days after the application.

[2] = system: Oryza sativa; experiment: Table 8 greenhouse trial, treatment at the 1-2 leaf stage: rice damage; assay type: in vivo; details: 22 days after application
Source text: as §1, with “Three weeks after sowing, the test plants are treated at the three-leaf stage.” left out

[3] = system: Oryza sativa; experiment: Table 2a field trial, treatment at the 1-2 leaf stage rice: rice damage; details: 28 days after application
Description: (§5) The examples mentioned below were carried out in the greenhouse, and in some instances, in field trials.

[4] = system: Oryza sativa (paddy rice); experiment: Table 1: damage to paddy rice; assay type: in vivo
Description: as §5

[5] = system: Leptochloa filiformis; experiment: Table 2a field trial, treatment at the 2-3 leaf stage weed grasses: weed control; assay type: in vivo; details: 28 days after application
Description: as §5

[6] = system: Oryza sativa; experiment: Table 6 field trial, treatment at the 1-2 leaf stage: rice damage; assay type: in vivo; details: 2 g of ai/ha; field trial, 28 days after application
Description: as §5

[7] = system: Sagittaria pygmaea; experiment: Table 22 field trial, treatment: 1-2 leaf stage: weed control; assay type: in vivo; details: 28 days after application
Source text: (§2) Field trial: Treatment: 1-2 leaf stage, evaluation 28 days after the application.

[8] = system: Oryza sativa; experiment: Table 4 field trial: rice damage
Description: as §5

[9] = system: Sagittaria pygmaea; experiment: Table 13 greenhouse trial, treatment at the 5-6 leaf stage: weed control; assay type: in vivo; details: 20 days after application
Description: as §1
(§3) Greenhouse trial: Treatment at the 5-6 leaf stage, evaluation 20 days after the application.

[10] = system: Oryza sativa; experiment: Table 9 greenhouse trial, treatment at the 1-2 leaf stage: rice damage; assay type: in vivo; details: 22 days after application
Description: as §1
Greenhouse trial: Treatment at the 1-2 leaf stage, evaluation 22 days after the application.

[11] = system: Cyperus serotinus; experiment: Table 12 greenhouse trial, treatment at the 1-2 leaf stage: weed control; assay type: in vivo; details: 20 days after application
Description: as §1
(§4) Greenhouse trial: Treatment at the 1-2 leaf stage, evaluation 20 days after the application.

[12] = system: Echinochloa crusgalli; experiment: Table 8 greenhouse trial, treatment at the 1-2 leaf stage: weed control; assay type: in vivo; details: 22 days after application
Source text: as §1, with “Three weeks after sowing, the test plants are treated at the three-leaf stage.” left out

[13] = system: Oryza sativa; experiment: Table 22 field trial, treatment: 1-2 leaf stage: rice damage; assay type: in vivo; details: 28 days after application
Source text: as §2

[14] = system: Oryza sativa; experiment: Table 13 greenhouse trial, treatment at the 5-6 leaf stage: rice damage; assay type: in vivo; details: 20 days after application
Description: as §1, §3

[15] = system: Cyperus serotinus; experiment: Table 16 greenhouse trial, treatment at the 2-3 leaf stage: weed control; assay type: in vivo; details: 20 days after application
Description: as §1
Greenhouse trail: Treatment at the 2-3 leaf stage, evaluation 20 days after the application.

[16] = system: Oryza sativa; experiment: Table 12 greenhouse trial, treatment at the 1-2 leaf stage: rice damage; assay type: in vivo; details: in vivo
Description: as §1, §4

[17] = system: Echinochloa crusgalli; experiment: Table 11 greenhouse trial, treatment at the 1-2 leaf stage: weed control; assay type: in vivo; details: 20 days after application
Description: as §1, §4

[18] = system: Oryza sativa; experiment: Table 7 field trial, treatment at the 1-2 leaf stage: rice damage; assay type: in vivo; details: 2 g of ai/ha, 28 days after application
Description: as §5

[19] = system: Cucumis dipsaceus; experiment: Table 1: weed control by A1*), safener C3-1) and combination; assay type: in vivo
Description: as §5

[20] = system: Echinochloa crusgalli; experiment: Table 7 field trial, treatment at the 1-2 leaf stage: weed control; assay type: in vivo; details: 2 g of ai/ha, 28 days after application
Description: as §5

[21] = system: Cyperus iria; experiment: Table 24 field trial, treatment by the pre-emergence method: weed control; assay type: in vivo; details: 53 days after application
Source text: Field trial: Treatment by the pre-emergence method, evaluation 53 days after the application.

[22] = system: Oryza sativa; details: in vivo
Description: as §1, with “The herbicidal compositions according to the invention also have good herbicidal post-emergence activity against a broad spectrum of economically important weed grasses and broad-leaved weeds.” left out

[23] = system: Commelina benghalensis; experiment: Table 26 field trial, treatment at the 3 leaf stage: weed control; assay type: in vivo; details: 33 days after application
Source text: Field trial: Treatment at the 3 leaf stage, evaluation 33 days after the application.

With COC(=O)c1ccc(I)cc1S(=O)(=O)NC(=O)Nc1nc(C)nc(OC)n1 [A1*), Sodium salt of methyl 4-iodo-2-[3-(4-methoxy-6-methyl-1,3,5-triazin-2-yl)ureidosulfonyl]benzoate] the SAGPY % control ([1]; 1.5 g of ai/ha) was 30%, the SAGPY % control ([1]; 3 g of ai/ha) was 50% and the ORYSW % damage ([2]; 1.5 g of ai/ha) was 10%. The ORYSW % damage ([2]; 3 g of ai/ha) was 10%, the ORYSW % damage ([3]; 1.25 g of ai/ha) was 10% and the ORYSW % damage ([3]; 2.5 g of ai/ha) was 25%. For the same compound, the ORYSW % damage ([3]; 5 g of ai/ha) was 25%, the ORYSW % damage ([4]; 1.25 g of ai/ha) was 15% and the ORYSW % damage ([4]; 2.5 g of ai/ha) was 15%. It also gave an LEFFI % control ([5]; 1.25 g of ai/ha) of 0%, an LEFFI % control ([5]; 2.5 g of ai/ha) of 73% and an LEFFI % control ([5]; 5 g of ai/ha) of 72%. For the same compound, the ORYSW % damage [6] was 0%, the SAGPY % control ([7]; 2.5 g of ai/ha) was 20% and the SAGPY % control ([7]; 5 g of ai/ha) was 40%. It also gave an ORYSW % damage ([8]; 1.25 g of ai/ha) of 0%, an ORYSW % damage ([8]; 2.5 g of ai/ha) of 0% and an ORYSW % damage ([8]; 5 g of ai/ha) of 1%. The SAGPY % control ([9]; 1.5 g of ai/ha) was 30%, the SAGPY % control ([9]; 3 g of ai/ha) was 50% and the ORYSW % damage ([10]; 1.5 g of ai/ha) was 10%. It also gave an ORYSW % damage ([10]; 3 g of ai/ha) of 10%, a CYPSE % control ([11]; 1.5 g of ai/ha) of 10% and a CYPSE % control ([11]; 3 g of ai/ha) of 30%. For the same compound, the ECHCG % control ([12]; 1.5 g of ai/ha) was 40%, the ECHCG % control ([12]; 3 g of ai/ha) was 60% and the ORYSW % damage ([13]; 2.5 g of ai/ha) was 6%. The ORYSW % damage ([13]; 5 g of ai/ha) was 12%, the ORYSW % damage ([14]; 1.5 g of ai/ha) was 10% and the ORYSW % damage ([14]; 3 g of ai/ha) was 10%. For the same compound, the CYPSE % control ([15]; 1.25 g of ai/ha) was 10%, the CYPSE % control ([15]; 2.5 g of ai/ha) was 30% and the CYPSE % control ([15]; 5 g of ai/ha) was 50%. The ORYSW % damage [16] was 10%, the ECHCG % control ([17]; 1.5 g of ai/ha) was 40% and the ECHCG % control ([17]; 3 g of ai/ha) was 60%. For the same compound, the ORYSW % damage [18] was 0%, the CUMDI % control ([19]; 1.25 g of ai/ha) was 60% and the CUMDI % control ([19]; 2.5 g of ai/ha) was 80%. For the same compound, the ECHCG % control [20] was 10%, the CYPIR % control ([21]; 2.5 g of ai/ha) was 17% and the CYPIR % control ([21]; 5 g of ai/ha) was 27%. The ORYSW % damage [22] was 10%, the COMBE % control ([23]; 2.5 g of ai/ha) was 47% and the COMBE % control ([23]; 5 g of ai/ha) was 67%.
